What was measured:
Type in all cases: in vivo
Conditions in all cases: 1200 g/ha, scale of 0-100, 0 no activity, 100 total control, about two or four weeks after application
[1] = test system: Foxtail, (green) (Setaria viridis); experiment: Herbicidal post-emergence test, Foxtail (green)
Experimental: (§1) Listed below, a typical planting design for the test, consisting of four monocot weeds, four dicot weeds and one sedge weed. [table] For each compound, evaluation tests were carried out according to the following procedures: For preemergence tests, immediately after planting, the test compound was sprayed directly onto the soil surface. The flats or pots were placed in the greenhouse and then watered. For postemergence tests, seeds were allowed to germinate and grow for 10 to 21 days before application. The test plants were selected for uniformity, size and stage of development. The test plants were then treated with the test compound, returned to the greenhouse and watered. Untreated plants were used as a comparison. The compound to be evaluated was dissolved in an appropriate solvent, usually acetone, or a formulation of the evaluated compounds as described above, was added to the water, and sprayed over the flats or pots using a carrier volume equivalent to 187 or 468 liters per hectare to give a rate of application in grams per hectare (g/ha). About two or four weeks after application of the test compounds, the state of the plant was observed. Each species was evaluated on a scale of 0-100 in which 0 equals no activity and 100 equals total control.

[2] = test system: Velvetleaf (Abutilon theophrasti); experiment: Herbicidal pre-emergence test, Velvetleaf
Experimental: as §1

[3] = test system: Hairy Beggarticks (Bidens pilosa); experiment: Herbicidal post-emergence test, Hairy Beggarticks
Experimental: as §1

[4] = test system: Crabgrass (large) (Digitaria sanguinalis); experiment: Herbicidal post-emergence test, Crabgrass (large)
Experimental: as §1

[5] = test system: Nightshade, (black) (Solanum nigrum); experiment: Herbicidal pre-emergence test, Nightshade (black)
Experimental: as §1

[6] = test system: Nutsedge, (yellow) (Cyperus esculentus); experiment: Herbicidal post-emergence test, Nutsedge (yellow)
Experimental: as §1

[7] = test system: Nightshade, (black) (Solanum nigrum); experiment: Herbicidal post-emergence test, Nightshade (black)
Experimental: as §1

[8] = test system: Foxtail, (green) (Setaria viridis); experiment: Herbicidal pre-emergence test, Foxtail (green)
Experimental: as §1

[9] = test system: Perennial Ryegrass (Lolium perenne); experiment: Herbicidal pre-emergence test, Perennial Ryegrass
Experimental: as §1

[10] = test system: Barnyardgrass (Echinochloa crusgalli); experiment: Herbicidal pre-emergence test, Barnyardgrass
Experimental: as §1

[11] = test system: Hairy Beggarticks (Bidens pilosa); experiment: Herbicidal pre-emergence test, Hairy Beggarticks
Experimental: as §1

[12] = test system: Barnyardgrass (Echinochloa crusgalli); experiment: Herbicidal post-emergence test, Barnyardgrass
Experimental: as §1

[13] = test system: Velvetleaf (Abutilon theophrasti); experiment: Herbicidal post-emergence test, Velvetleaf
Experimental: as §1

[14] = test system: Perennial Ryegrass (Lolium perenne); experiment: Herbicidal post-emergence test, Perennial Ryegrass
Experimental: as §1

[15] = test system: Crabgrass (large) (Digitaria sanguinalis); experiment: Herbicidal pre-emergence test, Crabgrass (large)
Experimental: as §1

[16] = test system: Smartweed, (pale) (Polygonum lapathifolium); experiment: Herbicidal pre-emergence test, Smartweed (pale)
Experimental: as §1

[17] = test system: Nutsedge, (yellow) (Cyperus esculentus); experiment: Herbicidal pre-emergence test, Nutsedge (yellow)
Experimental: as §1

[18] = test system: Smartweed, (pale) (Polygonum lapathifolium); experiment: Herbicidal post-emergence test, Smartweed (pale)
Experimental: as §1

SMILES	Herbicidal Activity FOX (post-emergence) [1]	Herbicidal Activity VEL (pre-emergence) [2]	Herbicidal Activity BID (post-emergence) [3]	Herbicidal Activity CRB (post-emergence) [4]	Herbicidal Activity NS (pre-emergence) [5]	Herbicidal Activity NUT (post-emergence) [6]	Herbicidal Activity NS (post-emergence) [7]	Herbicidal Activity FOX (pre-emergence) [8]	Herbicidal Activity RYE (pre-emergence) [9]	Herbicidal Activity BYG (pre-emergence) [10]	Herbicidal Activity BID (pre-emergence) [11]	Herbicidal Activity BYG (post-emergence) [12]	Herbicidal Activity VEL (post-emergence) [13]	Herbicidal Activity RYE (post-emergence) [14]	Herbicidal Activity CRB (pre-emergence) [15]	Herbicidal Activity SMT (pre-emergence) [16]	Herbicidal Activity NUT (pre-emergence) [17]	Herbicidal Activity SMT (post-emergence) [18]
CN1C(=O)C(=O)N(c2cc(OC3CCCC3)c(Cl)cc2F)C1=O [Compound 3]	60	0	80	0/0	0	0/0	80	0	0/0	0	0	30	100	0/0	0/0	0	0/0	85
CCN1C(=O)C(=O)N(c2cc(OC3CCCC3)c(Cl)cc2F)C1=O [Compound 4]	60	0	85	0/0	0	0/0	85	0	0/0	0	0	60	100	0/0	0/0	0	0/0	90
O=C1C(=O)N(c2cc(OC3CCCC3)c(Cl)cc2F)C(=O)N1CCCl [Compound 6]	0	0/0	0	0	30	0/0	80	30	0/0	40/40	30	40/40	0/0	0/0	30	30	0/0	0
CCCN1C(=O)C(=O)N(c2cc(OC3CCCC3)c(Cl)cc2F)C1=O [Compound 8]	95	100/100	95	40	100/100	0/0	100/100	0	0/0	0	100	60	100/100	0/0	100	20	0/0	100
CCCCN1C(=O)C(=O)N(c2cc(OC3CCCC3)c(Cl)cc2F)C1=O [Compound 10]	80	0	60	20	0	30	100	0	0	0	0	40	100	30	0	0	0	30
C#CCOc1cc(N2C(=O)C(=O)N(C)C2=O)c(F)cc1Cl [Compound 12]	40	20	95	30	50	0/0	100	0	0/0	0	40	40	100	0/0	0	0	0/0	100
C#CCOc1cc(N2C(=O)C(=O)N(CCC)C2=O)c(F)cc1Cl [Compound 13]	60	100/100	85	30	100/100	30	100/100	100	60	95	100	80	100/100	30	100	100	0	95
